Measured values published in ChEMBL document CHEMBL4257548, “Phenothiazine antioxidants increase mitochondrial biogenesis and frataxin levels in Friedreich's ataxia cells” (Medchemcomm, 2018).
The source made the active and inactive calls. The rule behind the calls is not given here.

How the values were obtained:
[1] = system: GM15850; assay: Effect on mitochondrial membrane potential in human GM15850 cells assessed as loss of mitochondrial membrane potential at 0.25 uM after 16 hrs by JC1 staining based flow cytometry (reference value: 13%); type: functional
[2] = system: GM15850; assay: Cytotoxicity against human GM15850 cells at 2.5 uM after 24 to 48 hrs by live/dead staining-based flow cytometry; type: cell-based; details: gm15850, 2.5 µM
[3] = system: GM16216; assay: Cytoprotection against DEM-induced toxicity in human GM16216 cells assessed as increase in cell viability at 0.5 to 2.5 uM pretreated for 16 hrs followed by DEM addition and measured after 5 hrs by live/dead staining based flow cytometry; type: functional
[4] = system: GM16216; assay: Effect on mitochondrial membrane potential in human GM16216 cells assessed as loss of mitochondrial membrane potential at 0.25 uM after 16 hrs by JC1 staining based flow cytometry (reference value: 13%); type: functional
[5] = system: GM15850; assay: Effect on mitochondrial membrane potential in human GM15850 cells assessed as intact mitochondrial membrane at 0.25 uM after 16 hrs by JC1 staining based flow cytometry (reference value: 87%); type: functional
[6] = system: GM15850; assay: Cytoprotection against DEM-induced toxicity in human GM15850 cells assessed as increase in cell viability at 0.5 to 2.5 uM pretreated for 16 hrs followed by DEM addition and measured after 5 hrs by live/dead staining based flow cytometry; type: functional
[7] = system: GM16216; assay: Effect on mitochondrial membrane potential in human GM16216 cells assessed as intact mitochondrial membrane at 0.25 uM after 16 hrs by JC1 staining based flow cytometry (reference value: 87%); type: functional
[8] = system: GM16216; assay: Cytotoxicity against human GM16216 cells at 2.5 uM after 24 to 48 hrs by live/dead staining-based flow cytometry; type: cell-based; details: gm16216, 2.5 µM
[9] = system: GM16216; assay: Inhibition of ATP production in human GM16216 cells after 24 hrs by Vialight reagent based luminescence assay; type: functional, cell-based
[10] = system: GM15850; assay: Inhibition of ATP production in human GM15850 cells after 24 hrs by Vialight reagent based luminescence assay; type: functional, cell-based
[11] = system: GM15850; assay: Effect on ATP production in human GM15850 cells at 0.1 uM after 24 hrs by Vialight reagent based luminescence assay; type: functional, cell-based
[12] = system: GM16216; assay: Effect on ATP production in human GM16216 cells at 0.1 uM after 24 hrs by Vialight reagent based luminescence assay; type: functional, cell-based
[13] = system: GM16216; assay: Restoration of total aconitase activity in human GM16216 cells at 50 nM after 5 days by colorimetric method relative to control; type: functional
[14] = system: GM16216; assay: Effect on frataxin expression in human GM16216 cells at 50 nM after 48 hrs by ELISA relative to control; type: functional
[15] = system: GM15850; assay: Restoration of total aconitase activity in human GM15850 cells at 50 nM after 5 days by colorimetric method relative to control; type: functional
[16] = system: GM15850; assay: Effect on frataxin expression in human GM15850 cells at 50 nM after 24 hrs by ELISA relative to control; type: functional
[17] = system: GM16216; assay: Induction of mitochondrial biogenesis in human GM16216 cells assessed as ratio of COX1 to SDH-A protein levels at 50 after 24 hrs by ELISA relative to control; type: functional
[18] = system: GM16216; assay: Induction of mitochondrial biogenesis in human GM16216 cells assessed as ratio of COX1 to SDH-A protein levels at 250 after 48 hrs by ELISA relative to control; type: functional
[19] = system: GM15850; assay: Induction of mitochondrial biogenesis in human GM15850 cells assessed as ratio of COX1 to SDH-A protein levels at 250 after 24 hrs by ELISA relative to control; type: functional
[20] = system: GM15850; assay: Restoration of total aconitase activity in human GM15850 cells at 250 nM after 5 days by colorimetric method relative to control; type: functional
[21] = system: GM16216; assay: Effect on frataxin expression in human GM16216 cells at 250 nM after 48 hrs by ELISA relative to control; type: functional
[22] = system: GM16216; assay: Restoration of total aconitase activity in human GM16216 cells at 250 nM after 5 days by colorimetric method relative to control; type: functional
[23] = system: GM16216; assay: Effect on frataxin expression in human GM16216 cells at 50 nM after 24 hrs by ELISA relative to control; type: functional
[24] = system: GM15850; assay: Effect on frataxin expression in human GM15850 cells at 250 nM after 48 hrs by ELISA relative to control; type: functional
[25] = system: GM15850; assay: Effect on frataxin expression in human GM15850 cells at 250 nM after 24 hrs by ELISA relative to control; type: functional
[26] = system: GM15850; assay: Effect on frataxin expression in human GM15850 cells at 50 nM after 48 hrs by ELISA relative to control; type: functional
[27] = system: GM16216; assay: Effect on frataxin expression in human GM16216 cells at 250 nM after 24 hrs by ELISA relative to control; type: functional
[28] = system: GM15850; assay: Induction of mitochondrial biogenesis in human GM15850 cells assessed as ratio of COX1 to SDH-A protein levels at 250 after 48 hrs by ELISA relative to control; type: functional
[29] = system: GM15850; assay: Induction of mitochondrial biogenesis in human GM15850 cells assessed as ratio of COX1 to SDH-A protein levels at 50 after 24 hrs by ELISA relative to control; type: functional
[30] = system: GM16216; assay: Induction of mitochondrial biogenesis in human GM16216 cells assessed as ratio of COX1 to SDH-A protein levels at 50 after 48 hrs by ELISA relative to control; type: functional
[31] = system: GM15850; assay: Induction of mitochondrial biogenesis in human GM15850 cells assessed as ratio of COX1 to SDH-A protein levels at 50 after 48 hrs by ELISA relative to control; type: functional
[32] = system: GM16216; assay: Induction of mitochondrial biogenesis in human GM16216 cells assessed as ratio of COX1 to SDH-A protein levels at 250 after 24 hrs by ELISA relative to control; type: functional
[33] = system: GM16216; assay: Cytoprotection against DEM-induced toxicity in human GM16216 cells assessed as increase in cell viability at 0.1 to 2.5 uM pretreated for 16 hrs followed by DEM addition and measured after 5 hrs by live/dead staining based flow cytometry; type: functional
[34] = system: GM15850; assay: Cytoprotection against DEM-induced toxicity in human GM15850 cells assessed as increase in cell viability at 0.1 to 2.5 uM pretreated for 16 hrs followed by DEM addition and measured after 5 hrs by live/dead staining based flow cytometry; type: functional
[35] = system: GM16216; assay: Increase in frataxin expression in human GM16216 cells at 50 nM after 24 to 48 hrs by ELISA; type: functional, cell-based
[36] = system: GM16216; assay: Increase in ATP production in human GM16216 cells at 0.1 to 0.5 uM after 24 hrs by Vialight reagent based luminescence assay; type: functional, cell-based
[37] = system: GM15850; assay: Cytotoxicity against human GM15850 cells at 0.25 to 2.5 uM after 24 to 48 hrs by live/dead staining-based flow cytometry; type: cell-based; details: gm15850, 2.5 µM
[38] = system: GM16216; assay: Inhibition of ATP production in human GM16216 cells at 2.5 uM after 24 hrs by Vialight reagent based luminescence assay; type: functional, cell-based
[39] = system: GM15850; assay: Inhibition of ATP production in human GM15850 cells at 2.5 uM after 24 hrs by Vialight reagent based luminescence assay; type: functional, cell-based
[40] = system: GM15850; assay: Increase in frataxin expression in human GM15850 cells at 250 nM after 24 to 48 hrs by ELISA; type: functional, cell-based
[41] = system: GM15850; assay: Increase in ATP production in human GM15850 cells at 0.1 to 0.5 uM after 24 hrs by Vialight reagent based luminescence assay; type: functional, cell-based
[42] = system: GM15850; assay: Increase in frataxin expression in human GM15850 cells at 50 nM after 24 to 48 hrs by ELISA; type: functional, cell-based
[43] = system: GM16216; assay: Increase in frataxin expression in human GM16216 cells at 250 nM after 24 to 48 hrs by ELISA; type: functional, cell-based
[44] = system: GM16216; assay: Cytotoxicity against human GM16216 cells at 0.25 to 2.5 uM after 24 to 48 hrs by live/dead staining-based flow cytometry; type: cell-based; details: gm16216, 2.5 µM

**Q.** Which results are given for `CCCCCc1cc2nc3ccc(N(C)C)cc3sc-2cc1=[N+](C)C.[I-]`?
**A.** Activity [1]: 19%; Activity [2]: Toxic; Activity [3]: Active; Activity [4]: 19%; Activity [5]: 81%; Activity [6]: Active; Activity [7]: 81%; Activity [8]: Toxic; inhibition [9]: Dose-dependent effect; inhibition [10]: Dose-dependent effect; Activity [11]: inactive; Activity [12]: inactive

**Q.** Which results are given for `CN(C)c1ccc2nc3ccc(N(C)C)cc3[s+]c2c1.[Cl-]` [METHYLENE BLUE ANHYDROUS]?
**A.** Activity [1]: 17%; Activity [4]: 17%; Activity [5]: 83%; Activity [7]: 83%

**Q.** What does the source list for `CCCCCCCCCCCCCCCN(CCCC)c1ccc2nc3ccc(=O)cc-3sc2c1`?
**A.** Activity [13]: 115%; Activity [14]: 121%; Activity [15]: 115%; Activity [16]: 116%; Activity [17]: 117%; Activity [18]: 137%; Activity [19]: 127%; Activity [20]: 116%; Activity [21]: 127%; Activity [22]: 116%; Activity [23]: 116%; Activity [24]: 127%; Activity [25]: 123%; Activity [26]: 121%; Activity [27]: 123%; Activity [28]: 137%; Activity [29]: 117%; Activity [30]: 123%; Activity [31]: 123%; Activity [32]: 127%

**Q.** How did the Activity [1] turn out when `CN(C)c1ccc2nc3ccc(=O)cc-3sc2c1` was run?
**A.** 15%

**Q.** What about the Activity [33] of the same compound?
**A.** Active

**Q.** What about the Activity [13] of the same compound?
**A.** 110%

**Q.** What about the Activity [14] of the same compound?
**A.** 113%

**Q.** What about the Activity [4] of the same compound?
**A.** 15%

**Q.** And the Activity [15]?
**A.** 110%

**Q.** What about the Activity [5] of the same compound?
**A.** 85%

**Q.** And the Activity [16]?
**A.** 111%

**Q.** What about the Activity [7] of the same compound?
**A.** 85%

**Q.** And the Activity [17]?
**A.** 115%

**Q.** And the Activity [18]?
**A.** 131%

**Q.** And the Activity [19]?
**A.** 117%

**Q.** And the Activity [20]?
**A.** 113%

**Q.** What about the Activity [34] of the same compound?
**A.** Active

**Q.** What about the Activity [21] of the same compound?
**A.** 115%

**Q.** What about the Activity [22] of the same compound?
**A.** 113%

**Q.** What about the Activity [23] of the same compound?
**A.** 111%

**Q.** And the Activity [24]?
**A.** 115%

**Q.** And the Activity [25]?
**A.** 114%

**Q.** What about the Activity [26] of the same compound?
**A.** 113%

**Q.** What about the Activity [27] of the same compound?
**A.** 114%

**Q.** And the Activity [28]?
**A.** 131%

**Q.** What about the Activity [29] of the same compound?
**A.** 115%

**Q.** And the Activity [30]?
**A.** 122%

**Q.** And the Activity [31]?
**A.** 122%

**Q.** And the Activity [32]?
**A.** 117%

**Q.** Which results are given for `CCCCCCCCCCCCCCCCc1cc2nc3ccc(N(C)C)cc3sc-2cc1=[N+](C)C.[I-]`?
**A.** Activity [1]: 14%; Activity [3]: Active; Activity [4]: 14%; Activity [35]: Active; Activity [36]: Active; Activity [5]: 86%; Activity [6]: Active; Activity [7]: 86%; Activity [37]: Non-Toxic; inhibition [38]: Active; inhibition [39]: Active; Activity [40]: inactive; Activity [41]: Active; Activity [42]: Active; Activity [43]: inactive; Activity [44]: Non-Toxic
